Values joined by “and” are separate entries in the source; they are usually repeats but may differ in a detail not shown here. Identical values can stand only once.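 Step 1: Grow cells in 96-well plates. Step 2: Expose to compound for 48 hours at 5 concentrations. Step 3: Interpolate endpoints linearly; if unreached, use highest concentration. GI50 = concentration required for 50% inhibition of growth. TGI marks complete inhibition of growth.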
Tests used:
Test in all cases: DTP human tumour cell line panel, 48 h
BT-549 breast = tested on: BT-549 breast
MCF7 breast = tested on: MCF7 breast
XF 498 CNS = tested on: XF 498 CNS
DMS 273 small cell lung = tested on: DMS 273 small cell lung
SNB-78 CNS = tested on: SNB-78 CNS
DMS 114 small cell lung = tested on: DMS 114 small cell lung
MDA-N = tested on: MDA-N
HOP-18 NSCLC = tested on: HOP-18 NSCLC

SMILES | GI50 (BT-549 breast) | TGI (BT-549 breast) | GI50 (MCF7 breast) | TGI (MCF7 breast) | also measured
COc1cc2ncnc(Nc3ccc(F)c(Cl)c3)c2cc1NC(=O)/C=C/CN1CCCCC1 | 2.49 µM and 2.56 µM | 8.32 µM and 9.98 µM | 2 µM and 2.03 µM | 6.32 µM and 6.56 µM | 
CN1C(=O)N(C)C2C1NN=c1s/c(=C\c3ccc(F)cc3)c(=O)n12 (stereo not drawn) | 13.1 µM | > 100 µM | 0.673 µM | > 100 µM | 
NC(=S)NNc1c([N+](=O)[O-])cnn(-c2ccccc2)c1=O |  |  |  |  | TGI (XF 498 CNS): 32.6 µM; TGI (DMS 273 small cell lung): 33.8 µM; TGI (SNB-78 CNS): 48.3 µM; TGI (DMS 114 small cell lung): 33.2 µM
O=C1C(c2ccccc2)=[N+]([O-])c2ccccc21 |  |  |  | 4.88 µM | TGI (MDA-N): 12.8 µM
O=c1cccc(C2CC(CO)C3CCCCN3C2)[nH]1 (stereo not drawn) |  | > 100 µM |  | > 100 µM | TGI (MDA-N): > 100 µM
COc1ccc(N2C(=O)[C@H]3CC(C)c4c([nH]c5ccccc45)[C@H]3C2=O)cc1 (stereo partly drawn) |  | > 80.7 µM |  | > 100 µM | TGI (XF 498 CNS): 22.4 µM; TGI (DMS 273 small cell lung): 17.2 µM; TGI (SNB-78 CNS): > 59.5 µM; TGI (DMS 114 small cell lung): 7.32 µM; TGI (MDA-N): 3.4 µM
CCN(CC)C(=S)Oc1cc2oc(=O)cc(C)c2cc1Cl |  | > 100 µM |  | > 100 µM | TGI (MDA-N): > 100 µM
CC[PH+](CC)CC.O=COC1OC([S-])C(OC=O)C(OC=O)C1OC=O.[Au+] (stereo not drawn) | 1.25 µM | 2.54 µM |  |  | 
COc1ccc2cc(-c3c(-c4ccncc4)nc(-c4ccc(S(C)(=O)=O)cc4C)n3C)ccc2c1 | 10.6 µM | > 25 µM | 7.09 µM | > 18.4 µM | 
C=CC(=O)Nc1cc2c(Nc3ccc(F)c(Cl)c3)ncnc2cc1OCCCN1CCOCC1 | 2.04 µM and 2.57 µM | 5.7 µM and > 7.88 µM | 1.32 µM and 2.52 µM | 7.01 µM and > 10 µM | 
CC[O-].CC[O-].O=S(=O)([O-])c1ccc([O-])c2ncccc12.O=S(=O)([O-])c1ccc([O-])c2ncccc12.[Ti+4] |  |  |  |  | GI50 (HOP-18 NSCLC): > 100 µM; TGI (HOP-18 NSCLC): > 100 µM; GI50 (DMS 273 small cell lung): 78.1 µM; TGI (DMS 273 small cell lung): > 100 µM; GI50 (SNB-78 CNS): > 100 µM; TGI (SNB-78 CNS): > 100 µM; GI50 (DMS 114 small cell lung): 74.7 µM; TGI (DMS 114 small cell lung): > 100 µM
NCCCCNc1ccc2c(=O)[nH][nH]c(=O)c2c1 |  |  |  |  | TGI (HOP-18 NSCLC): > 100 µM; TGI (DMS 273 small cell lung): > 100 µM; TGI (SNB-78 CNS): > 100 µM; TGI (DMS 114 small cell lung): > 100 µM
O=C1c2cc(Cl)ccc2-c2c1c1ccc([N+](=O)[O-])cc1c(=O)n2CCCBr | 34.2 µM | > 100 µM | 4.61 µM | > 100 µM | 
Cc1cc2c(cc1Cl)SC1=NN(C)C(N(C)C)N1S2(=O)=O (stereo not drawn) | > 100 µM | > 100 µM | > 100 µM | > 100 µM | 
COc1cc(C(=O)Nc2cc3c(cc2Oc2cc(C)cc(C)c2)C(=O)N(C)[C@@H](CC(=O)N(C)O)C(=O)N3)c(Br)c(OC)c1OC | < 0.00333 µM | < 0.00333 µM | < 0.00333 µM | 0.00821 µM | 
COc1ccc(C2=NN(C=O)C(c3cccc(Nc4ccnc5cc(Cl)ccc45)c3)C2)cc1 (stereo not drawn) | 1.93 µM | 9.87 µM | 1.59 µM | 39.4 µM | 
CCOC(=O)/C=C/C1=C(c2cccs2)c2ccccc2CC1 | 24.2 µM | 54.3 µM | 36.1 µM | > 100 µM | 
COc1cc(-c2cn(-c3ccc(Cl)c(Cl)c3)c(=O)n2C(C)=O)cc(OC)c1OC | 10.7 µM | 22.7 µM | 14.7 µM | 37.7 µM | 
O=C(N/N=C(/CCN1CCCC1)CC(c1ccccc1)c1c(O)c2ccccc2oc1=O)c1ccncc1 (stereo not drawn) |  |  |  |  | TGI (HOP-18 NSCLC): > 100 µM; TGI (SNB-78 CNS): > 100 µM
Nc1ccccc1C#C/C=C\C#Cc1ccccc1 | 3.29 µM | 16.3 µM |  |  | 
Fc1cc2[nH]ncc2c2c3c(c(-c4cn[nH]c4C(F)(F)F)nc12)C1CCC3C1 (stereo not drawn) | 0.883 µM | 2.97 µM | 0.815 µM | 5.57 µM | 
CCOC(=O)c1cc(/C=C/C(C)=C/C(=O)OC)oc1C |  |  |  |  | TGI (XF 498 CNS): > 100 µM; TGI (SNB-78 CNS): > 100 µM; TGI (DMS 114 small cell lung): > 100 µM
COc1ccc(-c2ccc(-c3ccc(C(=N)N)cn3)o2)cc1 | 10.7 µM | 22.8 µM | 3.17 µM | 13.4 µM | 
CCn1c(-c2nonc2N)nc2c(C#CC(C)(C)O)nc(OCCNC)cc21 | 7.17 µM | > 22.1 µM | 4.9 µM | > 25 µM | 
O=C(O)C1CCCCC1C(=O)O.[NH-]C1CCC1.[NH2-].[Pt+2] (stereo not drawn) | 19.8 µM | 77.9 µM | 22.7 µM | > 100 µM | 
Nc1ccc(C(=O)CC(N)C(=O)O)cc1O (stereo not drawn) |  | > 100 µM |  | > 100 µM | TGI (MDA-N): > 100 µM
CNCCn1c(=O)c2cc(OC)c(OC)cc2c2ccc3cc4c(cc3c21)OCO4 | 0.263 µM | 4.37 µM | 0.0296 µM | 4.43 µM | 

From PubChem BioAssay (NCI)
